Data from patent US20250002492A1, “COMPOSITIONS OF FOLATE ABSORPTION INHIBITORS AND METHODS THEREOF” (THE TEXAS A&M UNIVERSITY SYSTEM, priority 2023, published 2025).

Experiments:
[1] = target: T1, Folate Uptake Transporter (PCFT) in Caco2 cells (Homo sapiens, UniProt Q96NT5); assay: Folate uptake transporter inhibition in Caco2 cell line ([3H]-folic acid uptake); format: cell-based; details: for inhibition at 50 µM: Caco-2, pH 5.5, test conc. 50 μM, read-out: Percentage inhibition (%); for effect on folate transport / uptake: Caco-2 cells, 50 μM
T1 construct: These cells express high levels of the PCFT/SLC46A1 receptor; host or cells: Caco-2
T1 sequence (Q96NT5 1-459): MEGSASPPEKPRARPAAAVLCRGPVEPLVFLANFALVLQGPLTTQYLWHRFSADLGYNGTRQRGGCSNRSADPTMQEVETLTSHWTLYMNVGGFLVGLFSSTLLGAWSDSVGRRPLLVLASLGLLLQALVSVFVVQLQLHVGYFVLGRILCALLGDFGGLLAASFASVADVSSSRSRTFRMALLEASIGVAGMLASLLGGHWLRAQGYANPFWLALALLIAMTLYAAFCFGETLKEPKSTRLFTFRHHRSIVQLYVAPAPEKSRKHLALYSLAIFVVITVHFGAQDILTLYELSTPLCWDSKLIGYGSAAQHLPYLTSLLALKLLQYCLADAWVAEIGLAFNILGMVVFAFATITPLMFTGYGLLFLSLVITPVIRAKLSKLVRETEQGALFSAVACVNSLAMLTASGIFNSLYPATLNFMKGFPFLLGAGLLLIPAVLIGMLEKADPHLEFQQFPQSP
Method: Cell plates were prepared using Caco-2 cell culture medium consisting of Dulbecco's Modified Eagle's Medium (DMEM) with high glucose and L-glutamine supplemented with: 10% FBS, 1× penicillin-streptomycin mixture and 1×non-essential amino acids (NEAA) and medium was incubated at 37° C., 5% CO2 for 0.5 hour. Plates were prepared for cell seeding. Caco-2 cells from American Type Culture Collection at passage 44 were cultivated in T-75 flasks in a cell culture incubator set at 37° C., 5% CO2, 95% relative humidity. Cells reached 80-90% confluence before detaching and splitting. Cultivated cells in T-75 flasks were rinsed with 5 mL PBS and aspirated off. Then, 3 mL trypsin/EDTA was added, and cells were incubated at 37° C. for approximately 5 minutes or until the cells detached and floated. Trypsin/EDTA was inactivate by adding excess serum containing medium. Cell suspension was removed and transferred to a conical tube and cells were pelleted by centrifugation at 120×g for 5 minutes. Cells were resuspended in seeding medium at a density of 3×10^4 cells/well in 24-well plates. The plate was incubated for 8-10 days. The medium was replaced every other day, beginning no sooner than 48 hours after initial plating.
(§1) The transport buffer (HBSS with 10 mM MES, pH 5.5) was prepared by weighing 1.952 g of MES and 0.35 g sodium hydrogen carbonate and adding into 900 mL of pure water followed by sonication to dissolve the content. Following the transfer of 100 mL of 10×HBSS into the solution. The solution was placed on a stirrer, the pH was slowly adjusted with hydrochloric acid to 5.5, and then the solution was filtered to get HBSS solution (with 10 mM MES, pH 5.5).
The [3H]-folic acid (10 nM) substrate solution was prepared using [3H]-folic acid (1 mCi/ml) diluted with pH 5.5 buffer. Next, the [3H]-folic acid (10 nM) substrate solution+test inhibitor (X μM) and the [3H]-folic acid (10 nM) substrate solution+positive control inhibitor (pemetrexed, 50 μM) were prepared. For the solution without inhibitor, DMSO was diluted with corresponding substrate solution to get the working incubation solution.
The pre-incubation solution was prepared by adding the same final concentration of test compound (X μM) and the known inhibitor (pemetrexed, 50 μM) in pH 5.5 buffer. For the solution without inhibitor, DMSO diluted with in pH 5.5 buffer was used as the vehicle control.
When the 8-10 day Caco-2 cultured cells reached confluence and were differentiated, they were ready to be used for transport studies. The Caco-2 plate was removed from the incubator, and the medium was removed from the 24-well Plates. Next, cells were washed 3 times with 300 μL of pre-warmed pH 5.5 buffer. Then, 300 μL of pre-incubation solution was added into each well and the plate was placed at 37° C. for 30 minutes. The assay was performed in duplicate. After 30 minutes pre-incubation, the pre-incubation solution was aspirated, and 300 μL of pre-warmed working incubation solution was added to start the transporter assay. After 6 minutes incubation, cells were washed by quickly adding/aspirating 300 μL of ice-cold pH 5.5 buffer 4 times. The pH 5.5 buffer was removed and 300 μL of pure water was added into each well. Freeze-thaw in liquid nitrogen and 37° C. incubator was repeated for 3 times to lyse cells. After, centrifugation at 3,300 g was performed for 30 seconds. Next, 50 μL of supernatant was transferred to Isoplate-96 Microplate. 200 μL of scintillation fluid was added to the 50 μL sample and radioactivity was measured by liquid scintillation counting in a MicroBeta 2 scintillation counter for 1 min/sample.
A BCA Kit was used to determine the protein content for each well. Bovine serum albumin at 2, 1, 0.5, 0.25, 0.125, 0.0625, 0.0313, 0.0156, 0.00781 and 0.00391 mg/mL was prepared in Phosphate Buffer Saline (PBS, pH 7.4). 10 μL of supernatant was mixed from the previous step with the same volume of PBS. […]

[2] = target: T1, Folate Uptake Transporter (PCFT) in Caco2 cells; assay: Folate uptake transporter substrate assessment in Caco2 cell line (compound uptake with and without pemetrexed); format: in vitro ADME; details: for cell permeability: Caco-2; for Uptake Ratio(−Inhibitor/+Inhibitor): human, Caco-2, 6 min, 1 μM, pH 5.5
Method: Cell Plates were Prepared According to the Methods of Example 8 Using Caco-2 Cells from American Type Culture Collection at Passage 37.
as §1
The test compounds and folic acid (1 μM) substrate solutions were prepared by diluting with pH 5.5 buffer. Next, the test compounds and folic acid (1 μM) substrate solution+positive control inhibitor (pemetrexed, 50 μM) were prepared. For the solution without inhibitor, DMSO was diluted with corresponding substrate solution to get the working incubation solution.
For the solution with inhibitor, the pre-incubation solution was prepared by adding the positive control inhibitor (pemetrexed, 50 μM) in pH 5.5 buffer. For the solution without inhibitor, DMSO was diluted with pH 5.5 buffer and used as the vehicle control.
When the 8-10 day Caco-2 cultured cells reached confluence and were differentiated, they were ready to be used for transport studies. The Caco-2 plate was removed from the incubator, and the medium was removed from the 24-well Plates. Next, cells were washed 3 times with 300 μL of pre-warmed pH 5.5 buffer. Then, 300 μL of pre-incubation solution was added into each well and the plate was placed at 37° C. for 30 minutes. The assay was performed in duplicate. After 30 minutes pre-incubation, the pre-incubation solution was aspirated, and 300 μL of pre-warmed working incubation solution was added to start the transporter assay. After 6 minutes incubation, cells were washed by quickly adding/aspirating 300 μL of ice-cold pH 5.5 buffer 4 times. The pH 5.5 buffer was removed and 300 μL of pure water was added into each well. Freeze-thaw in liquid nitrogen and 37° C. incubator was repeated for 3 times to lyse cells. After, centrifugation at 3,300 g was performed for 30 seconds. Next, 50 μL of supernatant was transferred to 200 μL methanol or acetonitrile containing internal standard and centrifuged at 3,300 g for 30 minutes. 200 μL aliquots of the supernatants were used for LC-MS/MS analysis. Standards were treated the same as samples.
A BCA Kit was used to determine the protein content for each well. Bovine serum albumin at 2, 1, 0.5, 0.25, 0.125, 0.0625, 0.0313, 0.0156, 0.00781 and 0.00391 mg/mL was prepared in Phosphate Buffer Saline (PBS, pH 7.4). 10 μL of supernatant was mixed from the previous step with the same volume of PBS. 20 μL of standard or test sample was added into 96-well clear plate and mixed with 200 μL working reagent. After 30 minutes incubation at 37° C., the absorbance at 562 nm was measured on the microplate reader.
Standard-curves: prepared 200 μM DMSO Folic acid solution, samples of 1000 nm, 300 nm, 100 nm, 30 nM, and 10 nM prepared using a PH 5.5 buffer, and a PH 5.5 buffer containing 50 μM of pemetrexed, respectively.
All calculations were carried out using Microsoft Excel. Peak areas were determined from extracted ion chromatograms. Uptake rate, in unit of pmol/mg protein/min, is calculated using the following equation: Uptake rate=Conc./(Protein×Time); Conc. is concentration of drug in cell lysate (nM), Protein is the protein concentration of cell lysate (mg/mL), and Time is the incubation time (minute). Uptake ratio is calculated using the following equation: Uptake ratio=Uptake rate without inhibitor/Uptake rate with inhibitor. Note: The compound was considered as a potential substrate of a particular transporter when the uptake ratio was greater than 2.

[3] = target: T1, Folate Uptake Transporter (PCFT) in Caco2 cells; assay: as above; format: in vitro ADME; details: positive control, test conc. 0.01 μM, radiolabelled
[4] = [3H]-folic acid 10 nM, 30 min pre-incubation, 6 min incubation

Compound | inhibition at 50 µM [1, 4] [%] | effect on folate transport / uptake ([1]; pH 5.5) | Percentage inhibition (%) ([1]; test conc. 50 μM, [3H]-folic acid 10 nM, pH 5.5, 30 min pre-incubation, 6 min incubation) | cell permeability [2] | Uptake Ratio(−Inhibitor/+Inhibitor) [2] | Uptake Rate (pmol/mg protein/min) ([3]; DMSO (no inhibitor)) | Uptake Ratio(−Inhibitor/+Inhibitor) ([3]; pemetrexed 50 μM) | Uptake Rate (pmol/mg protein/min) ([3]; with pemetrexed 50 μM)
Cc1ccc(NC(=O)N2Cc3[nH]cnc3CC2c2nc(-c3ccc4c(c3)OCO4)no2)cc1 (stereo not shown) [MPOL_D_1, 6-(3-(benzo[d][1,3]dioxol-5-yl)-1,2,4-oxadiazol-5-yl)-N-(p-tolyl)-3,4,6,7-tetrahydro-5H-imidazo[4,5-c]pyridine-5-carboxamide] | 25.5 | inhibit folate uptake | 25.25 | highly permeable | 1.02 | – | – | –
Cc1cccc(-c2noc(C3Cc4nc[nH]c4CN3C(=O)Nc3cccc(F)c3)n2)c1 (stereo not shown) [MPOL_D_2, N-(3-fluorophenyl)-6-(3-(m-tolyl)-1,2,4-oxadiazol-5-yl)-3,4,6,7-tetrahydro-5H-imidazo[4,5-c]pyridine-5-carboxamide] | -18.7 | promoted folate transport | – | highly permeable | 0.86 | – | – | –
Folic acid [3,5,7,9-3H] sodium salt | – | – | – | – | – | 0.02 | 2.66 | 0.01
Nc1nc2[nH]cc(CCc3ccc(C(=O)N[C@@H](CCC(=O)O)C(=O)O)cc3)c2c(=O)[nH]1 [Pemetrexed, reference compound] | 62.4 | – | – | – | – | – | – | –
